# Measurements taken from ChEMBL document CHEMBL1201862, “PubChem BioAssay data set” (2004).
#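 96-well plates; 48 h exposure; 5 concentrations. Endpoints by linear interpolation between flanking doses. Not reached: highest tested concentration assigned. The concentration for 50% growth inhibition is given as GI50.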 Activity calls are given as the source filed them. Cut-off read from the data, not from the text of the source: active = GI50 up to about 1.1 µM and inactive = higher.
# Columns and labels:
# Assay in all cases: growth of human tumour cells (NCI), 48 h
# [1] = system: ACHN
# [2] = system: CAKI-1
# [3] = system: COLO 205
# [4] = system: HCT-116
# [5] = system: HL-60
# [6] = system: Hs-578T
# [7] = system: KM12
# [8] = system: LOX IMVI
# [9] = system: MCF7
# [10] = system: MDA-MB-231
# [11] = system: MDA-MB-435
# [12] = system: MOLT-4
# [13] = system: OVCAR-5
# [14] = system: UACC-257
# [15] = system: UO-31
# [16] = system: A498
# [17] = system: HCC 2998
# [18] = system: TK-10
SMILES,GI50 [1],GI50 [2],GI50 [3],GI50 [4],GI50 [5],GI50 [6],GI50 [7],GI50 [8],GI50 [9],GI50 [10],GI50 [11],GI50 [12],GI50 [13],GI50 [14],GI50 [15],GI50 [16],GI50 [17],GI50 [18]
O=c1cc(-c2ccc(O)cc2)n(C2CC2)c2ccccc12,2.47 µM (inactive),4.42 µM (inactive),2.64 µM (inactive),2.75 µM (inactive),19.7 µM (inactive),5.41 µM (inactive),3.45 µM (inactive),4.67 µM (inactive),4.66 µM (inactive),8.47 µM (inactive),4.83 µM (inactive),50.9 µM (inactive),3.64 µM (inactive),10.2 µM (inactive),4.02 µM (inactive),,,
CN(C)c1ccc(C2CC(c3ccc4ccccc4c3O)=NN2)cc1 (stereo not drawn),38.4 µM (inactive),40.6 µM (inactive),19.5 µM (inactive),31.7 µM (inactive),,37.4 µM (inactive),39.5 µM (inactive),,27.7 µM (inactive),50 µM (inactive),30.4 µM (inactive),20.3 µM (inactive),80.7 µM (inactive),38.8 µM (inactive),30.1 µM (inactive),22.4 µM (inactive),69.7 µM (inactive),56.4 µM (inactive)
CN(C)c1ccc(C(Cc2ccccc2)C2NC(=S)NC2=O)cc1 (stereo not drawn),> 100 µM (inactive),> 100 µM (inactive),> 100 µM (inactive),> 100 µM (inactive),29.1 µM (inactive),91.8 µM (inactive),> 100 µM (inactive),> 100 µM (inactive),> 100 µM (inactive),> 100 µM (inactive),> 75.7 µM (inactive),61.1 µM (inactive),> 100 µM (inactive),> 100 µM (inactive),> 100 µM (inactive),> 100 µM (inactive),,> 100 µM (inactive)
C#C[C@]1(O)[C@@H](CO)O[C@@H](n2ccc(N)nc2=O)[C@@H]1O,< 0.01 µM (active),< 0.01 µM (active),< 0.0111 µM (active),< 0.0435 µM (active),< 0.0147 µM (active),0.108 µM (active),< 0.0127 µM (active),< 0.01 µM (active),< 0.01 µM (active),0.0908 µM (active),< 0.01 µM (active),0.0101 µM (active),0.209 µM (active),0.111 µM (active),0.0119 µM (active),,< 0.0135 µM (active),0.0224 µM (active)
O=c1cc(N2CCN(c3cc(=O)n4ccccc4n3)CC2)oc2ccccc12,> 100 µM (inactive),34 µM (inactive),61 µM (inactive),> 100 µM (inactive),,36.2 µM (inactive),35.4 µM (inactive),> 100 µM (inactive),> 70.5 µM (inactive),61.9 µM (inactive),55 µM (inactive),33.6 µM (inactive),> 100 µM (inactive),> 24 µM (inactive),38.1 µM (inactive),> 84.5 µM (inactive),33.5 µM (inactive),> 100 µM (inactive)
CC(=O)O[C@@H]1CC2[C@@H](CCC3Cc4nc5c(nc4C[C@@]32C)CC2CC[C@@H]3C(CC[C@@]4(C)C3CC[C@@H]4C(C)CCCC(C)C)[C@@]2(C)C5)C2C[C@@H]3OC4(CCC(C)CO4)C(C)[C@@H]3[C@]21C (stereo partly drawn),55.7 µM (inactive),,> 100 µM (inactive),> 100 µM (inactive),> 100 µM (inactive),21.1 µM (inactive),> 100 µM (inactive),,> 100 µM (inactive),> 100 µM (inactive),> 100 µM (inactive),> 100 µM (inactive),> 100 µM (inactive),> 100 µM (inactive),,,> 100 µM (inactive),33.1 µM (inactive)
CCOP(=O)(OCC)C(C)(C)N(C)/C(F)=N/C(F)(F)F,> 100 µM (inactive),> 100 µM (inactive),> 100 µM (inactive),> 100 µM (inactive),> 100 µM (inactive),> 100 µM (inactive),> 100 µM (inactive),> 100 µM (inactive),> 100 µM (inactive),> 100 µM (inactive),> 100 µM (inactive),> 100 µM (inactive),> 100 µM (inactive),> 100 µM (inactive),> 100 µM (inactive),,> 100 µM (inactive),> 100 µM (inactive)
CC(=O)NC(CS/N=N/c1[nH]cnc1C(N)=O)C(=O)O (stereo not drawn),6.27 µM (inactive),2.55 µM (inactive),7.24 µM (inactive),5.5 µM (inactive),1.16 µM (inactive),16.2 µM (inactive),6.71 µM (inactive),0.343 µM (active),> 46.8 µM (inactive),2.2 µM (inactive),10.4 µM (inactive),3.38 µM (inactive),> 76.2 µM (inactive),39.3 µM (inactive),2.82 µM (inactive),,4.41 µM (inactive),1.75 µM (inactive)
Clc1ccccc1/C=c1\nc(-c2ccccc2)n2c1nc1ccccc12,> 100 µM (inactive),68.7 µM (inactive),> 100 µM (inactive),35.4 µM (inactive),> 100 µM (inactive),25.8 µM (inactive),> 100 µM (inactive),> 100 µM (inactive),> 100 µM (inactive),22.8 µM (inactive),> 100 µM (inactive),> 100 µM (inactive),> 100 µM (inactive),> 100 µM (inactive),> 100 µM (inactive),> 100 µM (inactive),,31.4 µM (inactive)
C/C=C(/C)C(=O)O[C@@H]1CCN2CC[C@H](COC(=O)/C(=C/C)CO)C12 (stereo partly drawn),> 100 µM (inactive),> 100 µM (inactive),20.6 µM (inactive),48.8 µM (inactive),> 59.8 µM (inactive),36.6 µM (inactive),> 100 µM (inactive),61.8 µM (inactive),> 100 µM (inactive),> 100 µM (inactive),63.1 µM (inactive),25.9 µM (inactive),> 100 µM (inactive),> 53.8 µM (inactive),> 87.7 µM (inactive),,20.7 µM (inactive),> 100 µM (inactive)
CC(=O)C1COC(O)C1C (stereo not drawn),23.9 µM (inactive),22.8 µM (inactive),17 µM (inactive),18.4 µM (inactive),12.4 µM (inactive),24.1 µM (inactive),13.6 µM (inactive),16.4 µM (inactive),20.7 µM (inactive),22.2 µM (inactive),16.1 µM (inactive),17.9 µM (inactive),27.2 µM (inactive),32.2 µM (inactive),17.7 µM (inactive),56.2 µM (inactive),,28.6 µM (inactive)
C=CCC1CC(n2cc(C)c(=O)[nH]c2=O)OC1CO[Si](C)(C)C(C)(C)C (stereo not drawn),15.4 µM (inactive),13.7 µM (inactive),13.5 µM (inactive),11.7 µM (inactive),,12.6 µM (inactive),12 µM (inactive),13 µM (inactive),11.5 µM (inactive),13.7 µM (inactive),13.4 µM (inactive),,17.3 µM (inactive),17.2 µM (inactive),11.4 µM (inactive),19.1 µM (inactive),17.9 µM (inactive),15.8 µM (inactive)
NC(=O)NOCC1NC(=O)NC1=O (stereo not drawn),> 100 µM (inactive),> 100 µM (inactive),> 100 µM (inactive),> 100 µM (inactive),19.3 µM (inactive),> 100 µM (inactive),> 100 µM (inactive),> 100 µM (inactive),> 100 µM (inactive),> 100 µM (inactive),> 100 µM (inactive),> 100 µM (inactive),> 100 µM (inactive),> 100 µM (inactive),> 100 µM (inactive),> 100 µM (inactive),,> 100 µM (inactive)
O=C1c2ccccc2-c2c1c1ccccc1c(=O)n2Cc1ccco1,,> 100 µM (inactive),> 100 µM (inactive),> 100 µM (inactive),> 100 µM (inactive),54.6 µM (inactive),> 100 µM (inactive),> 100 µM (inactive),> 100 µM (inactive),> 100 µM (inactive),> 100 µM (inactive),> 100 µM (inactive),> 100 µM (inactive),> 100 µM (inactive),> 100 µM (inactive),> 100 µM (inactive),,> 100 µM (inactive)
CC(C)(C)C(=O)O[C@H]1C=C[C@@H](O)[C@@H]2[C@H]1[C@@H]1C=C[C@H]2C1,45.4 µM (inactive),71 µM (inactive),6.03 µM (inactive),29.6 µM (inactive),4.15 µM (inactive),> 100 µM (inactive),2.63 µM (inactive),21.4 µM (inactive),7.18 µM (inactive),19.2 µM (inactive),,13.4 µM (inactive),1.96 µM (inactive),6.52 µM (inactive),47.9 µM (inactive),20.3 µM (inactive),14.9 µM (inactive),26.4 µM (inactive)
OCC1c2ccccc2-n2nc(-c3ccccc3)c(O)c21 (stereo not drawn),16.8 µM (inactive),17.8 µM (inactive),13.5 µM (inactive),> 10 µM (inactive),,42.2 µM (inactive),18.4 µM (inactive),20.7 µM (inactive),14.4 µM (inactive),29.2 µM (inactive),26.2 µM (inactive),31 µM (inactive),> 100 µM (inactive),47 µM (inactive),22.8 µM (inactive),,16.3 µM (inactive),19.9 µM (inactive)
